Laboratory results: PubChem BioAssay AID2060885 (Molecular Pharmacology Branch, DTP, NCI, 2025)
pIC50: −log10 of the molar value.

System: NCI-H23 complex spheroids with HUVEC/MSC, viability
Assay: Anticancer human tumor NCI-H23 cell line growth inhibition [RAS];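 further: spheroids exposed to compound for 7 days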;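 on viability, T/C: 100% = DMSO vehicle control viability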
Conditions: for pIC50: curve of first compound; for viability, T/C: stronger effect = lower value
Method in brief: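 Agents were tested in combination matrices in half-log decrements from a top concentration at or near clinical Cmax (10 microM if undetermined). Targets were multi-cell spheroids of tumour lines plus HUVEC and MSC stromal cells.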

C[C@@H](NC(=O)c1ncnc(N)c1Cl)c1ncc(C(=O)Nc2cc(C(F)(F)F)c(Cl)cn2)s1 + CCn1c(-c2cc(N3CCN(C)CC3)cnc2C(C)OC)c2c3cc(ccc31)-c1csc(n1)CC(NC(=O)C1CC1C)C(=O)N1CCCC(N1)C(=O)OCC(C)(C)C2
pIC50 (second compound 0.000949 µM): 5.82
pIC50 (second compound 0.003 µM): > 7.50
pIC50 (second compound 0.00949 µM): > 7.50
pIC50 (second compound 0.03 µM): > 7.50
pIC50 (second compound 0.0949 µM): > 7.50
pIC50 (second compound 0.3 µM): > 7.50
viability, T/C (second compound 0.000949 µM, first compound 0.0316 µM): 51.5%
viability, T/C (second compound 0.000949 µM, first compound 0.1 µM): 54.4%
viability, T/C (second compound 0.000949 µM, first compound 0.316 µM): 46.1%
viability, T/C (second compound 0.000949 µM, first compound 1 µM): 48.4%
viability, T/C (second compound 0.000949 µM, first compound 3.16 µM): 49.9%
viability, T/C (second compound 0.000949 µM, first compound 10 µM): 25%
viability, T/C (second compound 0.003 µM, first compound 0.0316 µM): 39.7%
viability, T/C (second compound 0.003 µM, first compound 0.1 µM): 33%
viability, T/C (second compound 0.003 µM, first compound 0.316 µM): 33.9%
viability, T/C (second compound 0.003 µM, first compound 1 µM): 37.2%
viability, T/C (second compound 0.003 µM, first compound 3.16 µM): 38.5%
viability, T/C (second compound 0.003 µM, first compound 10 µM): 24.6%
viability, T/C (second compound 0.00949 µM, first compound 0.0316 µM): 35.3%
viability, T/C (second compound 0.00949 µM, first compound 0.1 µM): 29.5%
viability, T/C (second compound 0.00949 µM, first compound 0.316 µM): 32.5%
viability, T/C (second compound 0.00949 µM, first compound 1 µM): 32.8%
viability, T/C (second compound 0.00949 µM, first compound 3.16 µM): 31.7%
viability, T/C (second compound 0.00949 µM, first compound 10 µM): 27%
viability, T/C (second compound 0.03 µM, first compound 0.0316 µM): 29.4%
viability, T/C (second compound 0.03 µM, first compound 0.1 µM): 27.8%
viability, T/C (second compound 0.03 µM, first compound 0.316 µM): 31.3%
viability, T/C (second compound 0.03 µM, first compound 1 µM): 30.7%
viability, T/C (second compound 0.03 µM, first compound 3.16 µM): 29.3%
viability, T/C (second compound 0.03 µM, first compound 10 µM): 25.2%
viability, T/C (second compound 0.0949 µM, first compound 0.0316 µM): 21.1%
viability, T/C (second compound 0.0949 µM, first compound 0.1 µM): 22.3%
viability, T/C (second compound 0.0949 µM, first compound 0.316 µM): 26.3%
viability, T/C (second compound 0.0949 µM, first compound 1 µM): 28.4%
viability, T/C (second compound 0.0949 µM, first compound 3.16 µM): 21.8%
viability, T/C (second compound 0.0949 µM, first compound 10 µM): 24.2%
viability, T/C (second compound 0.3 µM, first compound 0.0316 µM): 22.6%
viability, T/C (second compound 0.3 µM, first compound 0.1 µM): 24.4%
viability, T/C (second compound 0.3 µM, first compound 0.316 µM): 24.2%
viability, T/C (second compound 0.3 µM, first compound 1 µM): 22.7%
viability, T/C (second compound 0.3 µM, first compound 3.16 µM): 25.4%
viability, T/C (second compound 0.3 µM, first compound 10 µM): 21.9%

CC(C)NCC(C(=O)N1CCN(c2ncnc3c2C(C)CC3O)CC1)c1ccc(Cl)cc1 (centres undefined) + C#Cc1c(F)ccc2cc(O)cc(-c3ncc4c(N5CC6CCC(C5)N6)nc(OCC56CCCN5CC(F)C6)nc4c3F)c12
pIC50 (second compound 0.0316 µM): < 5.00
pIC50 (second compound 0.1 µM): < 5.00
pIC50 (second compound 0.316 µM): < 5.00
pIC50 (second compound 1 µM): < 5.00
pIC50 (second compound 3.16 µM): 6.28
pIC50 (second compound 10 µM): > 7.50
viability, T/C (second compound 0.0316 µM, first compound 0.0316 µM): 100%
viability, T/C (second compound 0.0316 µM, first compound 0.1 µM): 133%
viability, T/C (second compound 0.0316 µM, first compound 0.316 µM): 89.4%
viability, T/C (second compound 0.0316 µM, first compound 1 µM): 90.5%
viability, T/C (second compound 0.0316 µM, first compound 3.16 µM): 76%
viability, T/C (second compound 0.0316 µM, first compound 10 µM): 74.2%
viability, T/C (second compound 0.1 µM, first compound 0.0316 µM): 107%
viability, T/C (second compound 0.1 µM, first compound 0.1 µM): 122%
viability, T/C (second compound 0.1 µM, first compound 0.316 µM): 95.3%
viability, T/C (second compound 0.1 µM, first compound 1 µM): 91%
viability, T/C (second compound 0.1 µM, first compound 3.16 µM): 69.7%
viability, T/C (second compound 0.1 µM, first compound 10 µM): 66.6%
viability, T/C (second compound 0.316 µM, first compound 0.0316 µM): 122%
viability, T/C (second compound 0.316 µM, first compound 0.1 µM): 131%
viability, T/C (second compound 0.316 µM, first compound 0.316 µM): 99.7%
viability, T/C (second compound 0.316 µM, first compound 1 µM): 84.4%
viability, T/C (second compound 0.316 µM, first compound 3.16 µM): 70.2%
viability, T/C (second compound 0.316 µM, first compound 10 µM): 55.7%
viability, T/C (second compound 1 µM, first compound 0.0316 µM): 108%
viability, T/C (second compound 1 µM, first compound 0.1 µM): 101%
viability, T/C (second compound 1 µM, first compound 0.316 µM): 73.6%
viability, T/C (second compound 1 µM, first compound 1 µM): 66.7%
viability, T/C (second compound 1 µM, first compound 3.16 µM): 56.1%
viability, T/C (second compound 1 µM, first compound 10 µM): 49%
viability, T/C (second compound 3.16 µM, first compound 0.0316 µM): 68.6%
viability, T/C (second compound 3.16 µM, first compound 0.1 µM): 69%
viability, T/C (second compound 3.16 µM, first compound 0.316 µM): 51.6%
viability, T/C (second compound 3.16 µM, first compound 1 µM): 44.9%
viability, T/C (second compound 3.16 µM, first compound 3.16 µM): 37.9%
viability, T/C (second compound 3.16 µM, first compound 10 µM): 32.6%
viability, T/C (second compound 10 µM, first compound 0.0316 µM): 38.4%
viability, T/C (second compound 10 µM, first compound 0.1 µM): 40.9%
viability, T/C (second compound 10 µM, first compound 0.316 µM): 34.1%
viability, T/C (second compound 10 µM, first compound 1 µM): 26.1%
viability, T/C (second compound 10 µM, first compound 3.16 µM): 22.8%
viability, T/C (second compound 10 µM, first compound 10 µM): 18.5%
